From ChEMBL document CHEMBL3885881, “DrugMatrix”

Species on record: Rattus norvegicus
Assay: DrugMatrix - Regimen: Daily Repeat
Format: toxicity, organism-based, Sprague-Dawley
Parameters: regimen Daily Repeat, gender Male, age 6-8 weeks
Details: in vivo, po, route oral GAVAGE, vehicle .5 % CMC; for ABSOLUTE BASOPHIL / ABSOLUTE EOSINOPHIL / ABSOLUTE LYMPHOCYTE / ABSOLUTE MONOCYTE / ABSOLUTE SEGMENTED NEUTROPHIL / BASOPHIL / EOSINOPHIL / ERYTHROCYTE COUNT / HEMATOCRIT / HEMOGLOBIN / LEUKOCYTE COUNT / LYMPHOCYTE / MEAN CORPUSCULAR HEMOGLOBIN / MEAN CORPUSCULAR HEMOGLOBIN CONCENTRATION / MEAN CORPUSCULAR VOLUME / MONOCYTE / NEUTROPHIL / NUCLEATED RED BLOOD CELLS / PLATELET COUNT: tissue Blood; for ALANINE AMINOTRANSFERASE / ALBUMIN / ALKALINE PHOSPHATASE / ASPARTATE AMINOTRANSFERASE / BLOOD UREA NITROGEN / CARBON DIOXIDE / CHLORIDE / CHOLESTEROL / CREATINE PHOSPHOKINASE / CREATININE / GLUCOSE / LACTATE DEHYDROGENASE / LIPASE / PHOSPHORUS / POTASSIUM / SODIUM / TOTAL BILIRUBIN / TOTAL PROTEIN / URIC ACID: tissue Plasma
[1] = 0 mg/kg, 72 h, dose level Control, time 3 day
[2] = 0 mg/kg, 120 h, dose level Control, time 5 day
[3] = 200 mg/kg, 72 h, dose level Low, time 3 day

SMILES: CCn1cc(C(=O)O)c(=O)c2cc(F)c(N3CCNCC3)cc21 [NORFLOXACIN]
- ABSOLUTE BASOPHIL [1]: 0 CELLS/uL
- ABSOLUTE EOSINOPHIL [1]: 0 CELLS/uL
- ABSOLUTE LYMPHOCYTE [1]: 12269.67 CELLS/uL
- ABSOLUTE MONOCYTE [1]: 160.33 CELLS/uL
- ABSOLUTE SEGMENTED NEUTROPHIL [1]: 970 CELLS/uL
- BASOPHIL [1]: 0%
- EOSINOPHIL [1]: 0%
- ERYTHROCYTE COUNT [1]: 5.76 x10E6/uL
- HEMATOCRIT [1]: 36.57%
- HEMOGLOBIN [1]: 14.22 G/DL
- LEUKOCYTE COUNT [1]: 13.4 x10E3/uL
- LYMPHOCYTE [1]: 91.67%
- MEAN CORPUSCULAR HEMOGLOBIN [1]: 24.67 pg
- MEAN CORPUSCULAR HEMOGLOBIN CONCENTRATION [1]: 38.85 G/DL
- MEAN CORPUSCULAR VOLUME [1]: 63.52 fL
- MONOCYTE [1]: 1.17%
- NEUTROPHIL [1]: 7.17%
- NUCLEATED RED BLOOD CELLS [1]: 0.33 /100WBC
- PLATELET COUNT [1]: 1250.83 x10E3/uL
- ALANINE AMINOTRANSFERASE [1]: 49.17 u/L
- ALBUMIN [1]: 4.33 G/DL
- ALKALINE PHOSPHATASE [1]: 378.5 u/L
- ASPARTATE AMINOTRANSFERASE [1]: 82.17 u/L
- BLOOD UREA NITROGEN [1]: 15 mg/dL
- CARBON DIOXIDE [1]: 34.33 mmol/L
- CHLORIDE [1]: 99.17 MEQ/L
- CHOLESTEROL [1]: 71.17 mg/dL
- CREATINE PHOSPHOKINASE [1]: 258.67 u/L
- CREATININE [1]: 0.18 mg/dL
- GLUCOSE [1]: 142.67 mg/dL
- LACTATE DEHYDROGENASE [1]: 154.33 u/L
- LIPASE [1]: 9 u/L
- PHOSPHORUS [1]: 11.67 mg/dL
- POTASSIUM [1]: 7.13 MEQ/L
- SODIUM [1]: 142.22 MEQ/L
- TOTAL BILIRUBIN [1]: 0.18 mg/dL
- TOTAL PROTEIN [1]: 5.77 G/DL
- URIC ACID [1]: 1.55 mg/dL
- ABSOLUTE BASOPHIL [2]: 0 CELLS/uL
- ABSOLUTE EOSINOPHIL [2]: 23.33 CELLS/uL
- ABSOLUTE LYMPHOCYTE [2]: 14943.67 CELLS/uL
- ABSOLUTE MONOCYTE [2]: 32 CELLS/uL
- ABSOLUTE SEGMENTED NEUTROPHIL [2]: 1084.33 CELLS/uL
- BASOPHIL [2]: 0%
- EOSINOPHIL [2]: 0.17%
- ERYTHROCYTE COUNT [2]: 5.71 x10E6/uL
- HEMATOCRIT [2]: 35.28%
- HEMOGLOBIN [2]: 14.27 G/DL
- LEUKOCYTE COUNT [2]: 16.08 x10E3/uL
- LYMPHOCYTE [2]: 93%
- MEAN CORPUSCULAR HEMOGLOBIN [2]: 25.02 pg
- MEAN CORPUSCULAR HEMOGLOBIN CONCENTRATION [2]: 40.43 G/DL
- MEAN CORPUSCULAR VOLUME [2]: 61.82 fL
- MONOCYTE [2]: 0.17%
- NEUTROPHIL [2]: 6.67%
- NUCLEATED RED BLOOD CELLS [2]: 0.33 /100WBC
- PLATELET COUNT [2]: 1274 x10E3/uL
- ALANINE AMINOTRANSFERASE [2]: 54.17 u/L
- ALBUMIN [2]: 4.22 G/DL
- ALKALINE PHOSPHATASE [2]: 373.17 u/L
- ASPARTATE AMINOTRANSFERASE [2]: 81.83 u/L
- BLOOD UREA NITROGEN [2]: 16.67 mg/dL
- CARBON DIOXIDE [2]: 30.33 mmol/L
- CHLORIDE [2]: 99 MEQ/L
- CHOLESTEROL [2]: 71 mg/dL
- CREATINE PHOSPHOKINASE [2]: 273.5 u/L
- CREATININE [2]: 0.22 mg/dL
- GLUCOSE [2]: 141.83 mg/dL
- LACTATE DEHYDROGENASE [2]: 153.67 u/L
- LIPASE [2]: 10.33 u/L
- PHOSPHORUS [2]: 11.38 mg/dL
- POTASSIUM [2]: 7.08 MEQ/L
- SODIUM [2]: 142.75 MEQ/L
- TOTAL BILIRUBIN [2]: 0.18 mg/dL
- TOTAL PROTEIN [2]: 6.1 G/DL
- URIC ACID [2]: 1.67 mg/dL
- ABSOLUTE BASOPHIL [3]: 0 CELLS/uL
- ABSOLUTE EOSINOPHIL [3]: 0 CELLS/uL
- ABSOLUTE LYMPHOCYTE [3]: 11949 CELLS/uL
- ABSOLUTE MONOCYTE [3]: 111 CELLS/uL
- ABSOLUTE SEGMENTED NEUTROPHIL [3]: 1006.67 CELLS/uL
- BASOPHIL [3]: 0%
- EOSINOPHIL [3]: 0%
- ERYTHROCYTE COUNT [3]: 5.6 x10E6/uL
- HEMATOCRIT [3]: 36.17%
- HEMOGLOBIN [3]: 14.13 G/DL
- LEUKOCYTE COUNT [3]: 13.07 x10E3/uL
- LYMPHOCYTE [3]: 91.67%
- MEAN CORPUSCULAR HEMOGLOBIN [3]: 25.27 pg
- MEAN CORPUSCULAR HEMOGLOBIN CONCENTRATION [3]: 39.07 G/DL
- MEAN CORPUSCULAR VOLUME [3]: 64.63 fL
- MONOCYTE [3]: 1%
- NEUTROPHIL [3]: 7.33%
- NUCLEATED RED BLOOD CELLS [3]: 0 /100WBC
- PLATELET COUNT [3]: 1470.67 x10E3/uL
- ALANINE AMINOTRANSFERASE [3]: 63.33 u/L
- ALBUMIN [3]: 4.33 G/DL
- ALKALINE PHOSPHATASE [3]: 468 u/L
- ASPARTATE AMINOTRANSFERASE [3]: 89 u/L
- BLOOD UREA NITROGEN [3]: 13.67 mg/dL
- CARBON DIOXIDE [3]: 28 mmol/L
- CHLORIDE [3]: 102 MEQ/L
- CHOLESTEROL [3]: 54.33 mg/dL
- CREATINE PHOSPHOKINASE [3]: 294 u/L
- CREATININE [3]: 0.26 mg/dL
- GLUCOSE [3]: 137.33 mg/dL
- LACTATE DEHYDROGENASE [3]: 260.67 u/L
- LIPASE [3]: 10 u/L
- PHOSPHORUS [3]: 13.5 mg/dL
- POTASSIUM [3]: 6.81 MEQ/L
- SODIUM [3]: 146.4 MEQ/L
- TOTAL BILIRUBIN [3]: 0.23 mg/dL
- TOTAL PROTEIN [3]: 6 G/DL
- URIC ACID [3]: 2.13 mg/dL
